What was measured:
IvAIS1 [1] = assay: GC-MS product assay, isoeugenol formation; type: biochemical, Illicium verum; conditions: NADPH co-substrate; pH 7.0, 45 °C
IvAIS1 [2] = assay: GC-MS product assay, t-anol formation; type: biochemical, Illicium verum; conditions: NADPH co-substrate; pH 7.0, 40 °C

Row | Km (IvAIS1 [1]) [µM] | Km (IvAIS1 [2]) [µM] | SMILES
1 | 438 ± 44.3 | – | COc1cc(/C=C/COC(C)=O)ccc1O [coniferyl acetate]
2 | – | 480 ± 86.6 | CC(=O)OC/C=C/c1ccc(O)cc1 [coumaryl acetate]

Reference: article PMC11938873 (Science Progress, 2025)
